Experimental findings from patent US9708289B2, “Imidazole diketone compound and use thereof” (HINOVA PHARMACEUTICALS INC., priority 2013, dated 2017) are described below.

Data set [1] can be described thus: Evaluation of pharmacokinetics in mice. It counts as in vivo, Kunming mice (KM mice). The settings on record: 10 mg/kg intragastric; for Tmax: Kunming (KM), mouse, po; for Tmax / Cmax: male KM mice, plasma; for Cmax compared with undeuterated compound 10: mice. How it is done: 10 mg/kg compound 10, 14, 17, 20 were intragastrically administered to Healthy Kunming mice (KM mice), male, weighing 18-20 g. Compounds were dissolved in DMSO:PEG400:H2O 1:5:14. The volume of administration was 10 mL/kg. Before testing, the mice fasted for 12 h and drunk water ad libitum. Then, the mice were fed together at 2 h after administration. 0.3 mL of blood were took from 3 mice through retrobulbar venous plexus at 0.5, 1.0, 2.0, 4.0, 6.0 and 24 h after administration, placed in heparinized tubes, and centrifuged for 5 min at 11000 rpm. The plasma was separated and frozen in a refrigerator at −20° C. 100 uL of serum was transferred with a pipettor into a clean plastic centrifuge tube marked with compound's name and time point, and diluted with acetonitrile (CH3CN) and centrifuged. The concentration of drug was analyzed by LC-MS. Serum was stored at −80° C. before analysis. The pharmacokinetic parameters of deuterated compound (compound 14, 17, and 20) and undeuterated compound (compound 10) were show in following table.

Data set [2] in a line: Evaluation of pharmacokinetics in rats. Format: in vivo, SD rats. The settings on record: 10 mg/kg intragastric; for AUCINF_obs / Cmax / Tmax / AUC(0-t) / MRT / half-life: male SD rats, mean, n = 4. How it is done: 10 mg/kg compound 10, and 14 were intragastrically administered to SD rats male, weighing […]. Compounds were dissolved in DMSO:PEG400:H2O 1:5:14. The volume of administration was 10 mL/kg. Conventional methods were used for the results evaluation.

The test system of data set [3] is human prostate cancer LNCaP. Kind of data set: Inhibition of the growth of prostate cancer cells (MTT, R1881-stimulated). Format: cell-based. The settings on record: for IC50: Homo sapiens, R1881 added, 96 hours, MTT, read-out: IC50, inhibition activity on LNCap/AR cell. On the procedure: The ability of compounds to inhibit the growth of prostate cancer cells was tested:
First, the human prostate cancer LNCaP (purchased from ATCC, USA) was transferred to a RPM11640 culture medium containing 10% charcoal-stripped fetal bovine serum (FBS). After cultured for three days, the cells were digested with 0.25% trypsin and counted through trypan blue staining. The cells were plated, with 100 μL cell suspension containing 4000 cells per well. 200 μL medium was added to the wells around the cell plate for avoiding edge effects.
The next day, 6 drug concentrations was prepared (48.6 μM, 19.44 μM, 7.776 μM, 3.11 μM, 1.24 μM, 0.5 μM) before administration, and 100 μL of corresponding compound at corresponding concentration was added into each well of a cell plate. The cell plate was placed in a cell incubator for 30 min, 10 μL of 4 nM R1881 was added into each well and homogeneously mixed. Upon the addition of R1881, the cell plate was placed in a cell incubator and incubated at 37° C., under 5% CO2 for 96 hours. Afterwards, 40 μL of MTT (prepared in PBS, concentration is 2.5 mg/mL) was added into each wells, and incubated at 37° C. for 2 hours. The supernatant was sucked off, and 100 μL of DMSO was added into each well. The plate was shaken by a vibrator for 10 min for dissolving formazan. The plate was read at 570 nm wavelength using a microplate reader in the unit of OD. The inhibition rate of test compounds was calculated with the following equation: IR (%)=(ODcontrol−ODsample)/(ODcontrol−ODblank)×100%
The inhibition rate curve of test compounds was plotted using the software XLFit (Formula 205), which can calculate the 50% inhibition rate, i.e. IC50.

In the case of `CNC(=O)c1ccc(N2C(=S)N(c3cnc(C#N)c(C(F)(F)F)c3)C(=O)C23CCC3)cc1F` [Compound 10, 4-[7-(6-cyano-5-trifluoromethyl-3-pyridyl)-8-oxo-6-thio-5,7-diazaspiro [3, 4]-5-octyl]-2-fluoro-N-methyl-benzamide, reference compound], in data set [1], the time of peak concentration (Tmax) is 6 h and the highest concentration (Cmax) was found to be 3320 ng/mL. Moreover, in data set [2], the AUCINF_obs stood at 14752 ng·h/mL, the Cmax came to 946.0 ng/mL and the Tmax stood at 3.500 h. In data set [2] (rat, in vivo, po), this compound showed an AUC(0-t) of 13100 ng·h/mL, a mean residence time MRT of 10.7 h and a half-life of 7.38 h. Also, the IC50 in data set [3] is 637 nM.

With `[2H]C([2H])([2H])NC(=O)c1ccc(N2C(=S)N(c3cnc(C#N)c(C(F)(F)F)c3)C(=O)C23CCC3)cc1F` [Compound 14, 4-[7-(6-cyano-5-trifluoromethyl-3-pyridyl)-8-oxo-6-thio-5,7-diazaspiro [3, 4]-5-octyl]-2-fluoro-N-trideuterated methyl-benzamide], in data set [1], the Tmax is 4 h, the Cmax was 4480 ng/mL and the “Cmax compared with undeuterated compound 10” value is recorded as “significantly increased”. In addition, in data set [2], the AUCINF_obs turned out to be 28729 ng·h/mL and the Tmax is on record as 3.500 h. Also, in data set [2] (rat, in vivo, po), the area under the curve AUC(0-t) was 24100 ng·h/mL, the mean residence time (MRT) was determined as 13 h and the half-life was 8.93 h. The maximum concentration (Cmax) in data set [2] (rat, in vivo, po, read-out: Cmax) was 1700 ng/mL. For the same compound, in data set [2] (rats), the “AUC relative to compound 10” value is “about 2 fold”, the “Cmax relative to compound 10” value is “about 2 fold” and the “half-life compared with compound 10” value was “longer half-life”. Also, in data set [3], the “inhibition on the growth of prostate cancer cell compared with compound 10” value is “better inhibition” and the IC50 is 280 nM.

On to `[2H]c1cc(C(=O)NC)c(F)c([2H])c1N1C(=S)N(c2cnc(C#N)c(C(F)(F)F)c2)C(=O)C12CCC2` [Compound 17, 4-[7-(6-cyano-5-trifluoromethyl-3-pyridyl)-8-oxo-6-thio-5,7-diazaspiro [3,4]-5-octyl]-3,5-bideuterium-2-fluoro-N-methyl-benzamide], for which, in data set [1], the Tmax worked out at 6 h and the Cmax came to 3480 ng/mL.

As for `[2H]c1cc(C(=O)NC([2H])([2H])[2H])c(F)c([2H])c1N1C(=S)N(c2cnc(C#N)c(C(F)(F)F)c2)C(=O)C12CCC2` [Compound 20, 4-[7-(6-cyano-5-trifluoromethyl-3-pyridyl)-8-oxo-6-thio-5,7-diazaspiro[3,4]-5-octyl]-3,5-bideuterium-2-fluoro-N-trideuteromethyl-benzamide], in data set [1], the Tmax was determined as 4 h, the maximum concentration (Cmax) worked out at 3940 ng/mL and the “Cmax compared with undeuterated compound 10” value was “significantly increased”.

By Tmax is commonly meant the time from dosing to the highest level. By Cmax is commonly meant the highest concentration seen after dosing. As a reminder, the AUC(0-t) is exposure summed from dosing to a finite time, without extrapolation to infinity. Usually MRT stands for a mean duration of stay, worked out from the concentration-time curve. The term half-life denotes how long it takes for the measured level to halve. Low values mean rapid decline, high ones slow decline.
